The source made the active and inactive calls. No cut-off for these calls is given here.
Assays:
Pythium aphanidermatum [1] = experiment: Inhibition of germ tube elongation of Pythium aphanidermatum synchronised cytospores at 500 uM after 4 hr; assay type: functional
Pythium aphanidermatum [2] = experiment: Inhibition of germ tube elongation of Pythium aphanidermatum synchronised cytospores at >100 uM after 4 hr; assay type: functional, organism-based
Pythium aphanidermatum [3] = experiment: Inhibition of zoospores encystment of Pythium aphanidermatum synchronised cytospores at 100 uM after 4 hr; assay type: functional, organism-based
Pythium aphanidermatum [4] = experiment: Inhibition of zoospores release of Pythium aphanidermatum synchronised cytospores at 100 uM after 4 hr; assay type: functional, organism-based
Saprolegnia monoica = experiment: Antifungal activity against Saprolegnia monoica assessed as inhibition of mycelial growth at 200 uM after 3 days; assay type: functional; conditions: 72 h, read-out: GI
Pythium aphanidermatum [5] = experiment: Antifungal activity against Pythium aphanidermatum assessed as inhibition of mycelial growth at 200 uM after 3 days; assay type: functional; conditions: 72 h, read-out: GI
Pythium aphanidermatum [6] = experiment: Down-regulation of CesA4 gene expression in Pythium aphanidermatum at 200 uM after 0.5 to 4 hr by qRT-PCR method; assay type: functional, organism-based
Pythium aphanidermatum [7] = experiment: Down-regulation of CesA3 gene expression in Pythium aphanidermatum at 200 uM after 0.5 to 4 hr by qRT-PCR method; assay type: functional, organism-based
Pythium aphanidermatum [8] = experiment: Down-regulation of CesA2 gene expression in Pythium aphanidermatum at 200 uM after 0.5 to 4 hr by qRT-PCR method; assay type: functional, organism-based
Pythium aphanidermatum [9] = experiment: Down-regulation of CesA1 gene expression in Pythium aphanidermatum at 200 uM after 0.5 to 4 hr by qRT-PCR method; assay type: functional, organism-based
Pythium aphanidermatum [10] = experiment: Effect on PaChs gene expression in Pythium aphanidermatum at 100 uM after 0.5 to 8 hr by qRT-PCR method; assay type: functional, organism-based
Pythium aphanidermatum [11] = experiment: Effect on CesA4 gene expression in Pythium aphanidermatum at 100 uM after 0.5 to 8 hr by qRT-PCR method; assay type: functional, organism-based
Pythium aphanidermatum [12] = experiment: Effect on CesA3 gene expression in Pythium aphanidermatum at 100 uM after 0.5 to 8 hr by qRT-PCR method; assay type: functional, organism-based
Pythium aphanidermatum [13] = experiment: Effect on CesA4 gene expression in Pythium aphanidermatum at 200 uM after 8 hr by qRT-PCR method; assay type: functional, organism-based
Pythium aphanidermatum [14] = experiment: Effect on CesA3 gene expression in Pythium aphanidermatum at 200 uM after 8 hr by qRT-PCR method; assay type: functional, organism-based
Pythium aphanidermatum [15] = experiment: Effect on CesA1 gene expression in Pythium aphanidermatum at 200 uM after 8 hr by qRT-PCR method; assay type: functional, organism-based
Pythium aphanidermatum [16] = experiment: Effect on CesA2 gene expression in Pythium aphanidermatum at 200 uM after 8 hr by qRT-PCR method; assay type: functional, organism-based
Pythium aphanidermatum [17] = experiment: Effect on PaChs gene expression in Pythium aphanidermatum at 200 uM after 0.5 to 8 hr by qRT-PCR method; assay type: functional, organism-based
Pythium aphanidermatum [18] = experiment: Inhibition of germ tube elongation of Pythium aphanidermatum synchronised cytospores at 0.5 to 121 uM after 4 hr; assay type: functional, organism-based
Pythium aphanidermatum [19] = experiment: Antifungal activity against Pythium aphanidermatum assessed as inhibition of mycelial growth at 100 uM after 3 days; assay type: functional; conditions: 72 h, read-out: GI
Pythium aphanidermatum [20] = experiment: Antifungal activity against Pythium aphanidermatum assessed as inhibition of mycelial growth at 10 uM after 3 days; assay type: functional, organism-based
Pythium aphanidermatum [21] = experiment: Up-regulation of CesA2 gene expression in Pythium aphanidermatum at 100 uM after 8 hr by qRT-PCR method relative to untreated control; assay type: functional
Pythium aphanidermatum [22] = experiment: Up-regulation of CesA1 gene expression in Pythium aphanidermatum at 100 uM after 8 hr by qRT-PCR method relative to untreated control; assay type: functional

## N#Cc1c(Cl)cccc1Cl [DICHLOBENIL]
Pythium aphanidermatum [1]
  inhibition at 500 µM: 18%
Pythium aphanidermatum [2]
  inhibition: Active
Pythium aphanidermatum [3]
  inhibition: inactive
Pythium aphanidermatum [4]
  inhibition: inactive
Saprolegnia monoica
  inhibition of growth at 200 µM: 40%
Pythium aphanidermatum [5]
  inhibition of growth at 200 µM: 12%
Pythium aphanidermatum [6]
  Activity: Active
Pythium aphanidermatum [7]
  Activity: Active
Pythium aphanidermatum [8]
  Activity: Active
Pythium aphanidermatum [9]
  Activity: Active
Pythium aphanidermatum [10]
  Activity: inactive
Pythium aphanidermatum [11]
  Activity: inactive
Pythium aphanidermatum [12]
  Activity: inactive
Pythium aphanidermatum [13]
  Activity: inactive
Pythium aphanidermatum [14]
  Activity: inactive
Pythium aphanidermatum [15]
  Activity: inactive
Pythium aphanidermatum [16]
  Activity: inactive
Pythium aphanidermatum [17]
  Activity: inactive

## C#CCOc1ccc(CCNC(=O)C(OCC#C)c2ccc(Cl)cc2)cc1OC (stereo not drawn) [MANDIPROPAMID]
Pythium aphanidermatum [18]
  inhibition: inactive
Pythium aphanidermatum [19]
  inhibition of growth at 100 µM: 34%
Pythium aphanidermatum [20]
  growth inhibition (GI): inactive
Pythium aphanidermatum [21]
  fold change (FC): 2
Pythium aphanidermatum [22]
  fold change (FC): 1.6

Source: ChEMBL document CHEMBL3046201, “Insights into the molecular mechanism of tolerance to carboxylic acid amide (CAA) fungicides in Pythium aphanidermatum” (2012)
